In PubChem BioAssay (NCI):
Where “and” joins values, the source holds several entries; their conditions need not be identical. Equal entries are not always repeated.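 Test compounds were applied to cells in 96-well plates for 48 hours at 5 doses. Abbreviation: GI50, concentration required for 50% inhibition of growth. TGI is the concentration that stops growth completely.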

Legend:
Assay in all cases: NCI tumour cell line growth inhibition, 48 h
NCI-H226 lung = system: NCI-H226 lung
T-47D breast = system: T-47D breast
MDA-MB-435 = system: MDA-MB-435
OVCAR-3 ovarian = system: OVCAR-3 ovarian
IGROV1 ovarian = system: IGROV1 ovarian
NCI/ADR-RES ovarian = system: NCI/ADR-RES ovarian
HOP-92 NSCLC = system: HOP-92 NSCLC
MOLT-4 leukemia = system: MOLT-4 leukemia
LOX IMVI melanoma = system: LOX IMVI melanoma
KM12 colon = system: KM12 colon
RPMI-8226 leukemia = system: RPMI-8226 leukemia
ACHN renal = system: ACHN renal
UACC-62 melanoma = system: UACC-62 melanoma
TK-10 renal = system: TK-10 renal
SF-268 CNS = system: SF-268 CNS
SNB-19 CNS = system: SNB-19 CNS

Row | SMILES | TGI (NCI-H226 lung) | TGI (T-47D breast) | TGI (MDA-MB-435) | TGI (OVCAR-3 ovarian) | TGI (IGROV1 ovarian) | TGI (NCI/ADR-RES ovarian) | TGI (HOP-92 NSCLC) | TGI (MOLT-4 leukemia) | TGI (LOX IMVI melanoma) | TGI (KM12 colon) | TGI (RPMI-8226 leukemia) | TGI (ACHN renal) | TGI (UACC-62 melanoma) | TGI (TK-10 renal) | TGI (SF-268 CNS) | TGI (SNB-19 CNS) | GI50 (T-47D breast) | GI50 (OVCAR-3 ovarian) | GI50 (SNB-19 CNS) | GI50 (KM12 colon)
1 | CCOC(=O)NN(C(=O)OCC)c1ccc(N=Nc2ccc(OC)cc2)n1C | 97.2 µM | 76.2 µM | 56 µM | 53.2 µM | 87.2 µM | 94.6 µM | 78.5 µM | > 100 µM | 41.5 µM | 76.9 µM | > 100 µM | 58.2 µM | > 100 µM | > 100 µM |  |  |  |  |  | 
2 | CCOC(=O)c1c(N2CCCC2)[nH]c(=O)c(C(c2c(O)c(C(=O)OCC)c(N3CCCC3)[nH]c2=O)C(C)C)c1O | > 100 µM | > 100 µM | > 100 µM | > 100 µM |  | > 100 µM | > 100 µM | > 100 µM | > 100 µM | > 100 µM | > 100 µM | > 100 µM | > 100 µM | > 100 µM | > 100 µM | > 100 µM |  |  |  | 
3 | Cn1c(N/N=C/c2ccccc2)nc(-c2ccc3c(c2)OCO3)c(C#N)c1=O |  | > 100 µM | > 100 µM | 90.6 µM | > 100 µM | > 100 µM | 67.2 µM | > 100 µM | > 100 µM | > 100 µM | > 100 µM | > 100 µM | > 100 µM | > 100 µM | > 100 µM | > 100 µM |  |  |  | 
4 | Cc1nc2cn3c(c2c(=O)[nH]1)CCCCC3 | > 100 µM | > 100 µM | > 100 µM |  | > 100 µM | > 100 µM | > 100 µM | > 100 µM | > 100 µM | > 100 µM | > 100 µM | > 100 µM | > 100 µM | > 100 µM | > 100 µM | > 100 µM |  |  |  | 
5 | O=C1CC(c2ccc(Cl)cc2)C2(C(=O)NC(=S)NC2=O)C(c2ccc(Cl)cc2)C1 (configuration not stated) | 66.9 µM | 74.1 µM | 39.9 µM | 33.9 µM |  | 52 µM | 40.3 µM | 89.5 µM | > 100 µM | 40.1 µM | 51.2 µM | > 100 µM | 34.4 µM | > 100 µM | 31.9 µM | 36.6 µM |  |  |  | 
6 | O=[N+]([O-])c1ccc(CSc2nn(Cc3ccc([N+](=O)[O-])cc3)cc3ncnc2-3)cc1 | > 100 µM | > 100 µM | 74.7 µM | > 100 µM | 52.1 µM | > 100 µM | 30.4 µM | > 100 µM | > 100 µM | > 100 µM | 75 µM | > 100 µM | 40.7 µM | > 100 µM |  |  |  |  |  | 
7 | COc1ccc(/C=C2/N=C(N/N=C\C(O)C(O)C(O)CO)NC2=O)cc1 (configuration not stated) | > 100 µM | > 100 µM | > 100 µM | > 100 µM and 67.8 µM | > 100 µM | > 100 µM | > 100 µM | > 100 µM | > 100 µM | > 100 µM | > 100 µM | > 100 µM |  | > 100 µM | > 100 µM | > 100 µM | 87.7 µM and 33.2 µM | > 100 µM and 24.3 µM | > 100 µM and 48.4 µM | > 100 µM and 26.9 µM
